Experiment [1] in a line: cells. Format: functional, cell-based.
A short description of experiment [2]: cells. Format: functional, cell-based. The source holds these as a separate data set.
Experiment [3] concerns the target Eukaryotic translation initiation factor 4E (Mus musculus, UniProt P63073). The experiment is described as follows: eIF4E–eIF4G protein interaction inhibitors, dose response, biochemical, TR-FRET (AID 855).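 Further: potency for disrupting eIF4E binding to eIF4GI seen as loss of FRET.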 Format: functional. (TR-FRET usually uses a lanthanide donor and a delayed reading to cut background.)
Experiment [4] can be described thus: P. falciparum 3D7-ScDHODH growth inhibitors, dose response, SYBR Green, dry powder samples (AID 1159570).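 Further: parasite growth measured after 72 hours of compound exposure.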 Format: functional, cell-based.
Experiment [5] is described as follows: P. falciparum ATP4 D1247Y mutant growth inhibitors, dose response, NITD609-resistant line, SYBR Green, dry powder (AID 1159571).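 Further: parasites synchronized at ring stage by sorbitol before testing.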 Format: functional, cell-based.
Experiment [6] is described as follows: P. falciparum Dd2 growth inhibitors, dose response, SYBR Green, dry powder samples (AID 1159566).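 Further: potency for growth inhibition with lower SYBR green DNA signal.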 The class given is functional, cell-based.
Experiment [7] is described as follows: LGR2 antagonists, dose response, cell-based, HEK293, CRE-luciferase reporter, cherry pick, set 2 (AID 743343).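 Further: transfected cells were stimulated with diluted bursicon conditioned medium after compound addition.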 Format: functional. On the technique in general: A reporter such as luciferase makes a cellular process visible.
The subject of experiment [8] is BJ. The experiment is described as follows: cytotoxicity toward BJ-TERT fibroblasts, dose response, cell-based, RAS-independent, luminescence (AID 1933). Format: functional. Particulars: Homo sapiens.
Experiment [9] concerns BJ. The experiment is described as follows: cytotoxicity toward BJ-TERT-LT-ST fibroblasts, dose response, cell-based, RAS-independent, luminescence (AID 1935).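 Further: BJ fibroblasts immortalized with TERT plus LT and ST oncogenes.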 The class given is functional. Particulars: Homo sapiens.
The nature of experiment [10]: cytotoxicity toward DRD oncogenic fibroblasts, dose response, cell-based, non-viral oncogenic, luminescence (AID 1934). The class given is functional. The following applies: Homo sapiens.
In experiment [11] the test system is BJ. The experiment is described as follows: cells. Format: functional, cell-based. Particulars: Homo sapiens.
Experiment [12] is described as follows: microbe, parasite or virus in culture. The following applies: Mycobacterium tuberculosis. The class given is functional.
The nature of experiment [13]: inhibitors of PGC1a acetylation in cells, dose response, cell-based, cherry-picked samples (AID 720514).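 Further: potency may reflect raised or lowered acetylation signal.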 The class given is functional.
Experiment [14] concerns the target T1, Trace amine-associated receptor 1 (Homo sapiens, UniProt Q96RJ0).
T1 sequence (Q96RJ0 whole entry): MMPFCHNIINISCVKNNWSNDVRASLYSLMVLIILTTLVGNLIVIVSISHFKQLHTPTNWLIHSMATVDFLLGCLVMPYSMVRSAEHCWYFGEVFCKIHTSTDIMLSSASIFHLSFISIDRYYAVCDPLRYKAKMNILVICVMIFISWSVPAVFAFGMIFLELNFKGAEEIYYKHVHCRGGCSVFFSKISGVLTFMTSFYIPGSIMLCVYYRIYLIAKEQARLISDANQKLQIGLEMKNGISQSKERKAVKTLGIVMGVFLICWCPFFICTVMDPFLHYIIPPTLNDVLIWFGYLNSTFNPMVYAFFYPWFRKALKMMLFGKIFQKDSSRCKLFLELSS
The experiment is described as follows: Fluorescence-based cell-based high throughput dose response assay to identify agonists of the human trace amine associated receptor 1 (TAAR1). Format: functional.

Experiment [15] is described as follows: cells. Format: functional, cell-based. This is another data set of the same source.
In experiment [16] the target is T1, Trace amine-associated receptor 1. As to the kind of experiment: Counterscreen for agonists of the human trace amine associated receptor 1 (hTAAR1): Fluorescence-based cell-based high throughput dose response assay to identify hTAAR1 agonist that also desensitize TAAR1 receptor response. Format: functional. In general terms: The purpose of a counterscreen is to sort out artefacts and off-target activity.

The nature of experiment [17]: cells. The class given is functional, cell-based. The source holds these as a separate data set.
A short description of experiment [18]: IGROV1 ovarian cancer cell cytotoxicity, dose response, PAX8 inhibitor project, plate reader, dry powder samples (AID 743043). The class given is functional, cell-based. The following applies: IGROV-1.
The next experiment has as its target Paired box protein Pax-8 (Homo sapiens, UniProt Q06710). As to the kind of experiment: inhibitors of PAX8-driven TPO luciferase reporter, dose response, RMG-I cells, cherry-pick (AID 687027).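 Further: luciferase reporter driven by Pax8 target thyroperoxidase promoter measured by SteadyGlo luminescence.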 Format: functional, cell-based.
A short description of experiment [19]: cytotoxicity in OVCAR8 ovarian cancer cells, dose response, PAX8 project, cell-based, plate reader, dry powder samples (AID 743197). Format: functional. Particulars: OVCAR-8.
Experiment [20] in a line: THP-1 cell cytotoxicity, dose response, cytotoxicity control for Vif-APOBEC3G degradation inhibitor project, THP-1 cells (AID 1117359). The class given is functional. The following applies: Human immunodeficiency virus 1, THP-1.
The nature of experiment [21]: cells. The class given is functional, cell-based. The source holds these as a separate data set.
Experiment [22] addresses T2, Nuclear receptor subfamily 0 group B member 1 (Homo sapiens, UniProt P51843).
T2 sequence (P51843 whole entry): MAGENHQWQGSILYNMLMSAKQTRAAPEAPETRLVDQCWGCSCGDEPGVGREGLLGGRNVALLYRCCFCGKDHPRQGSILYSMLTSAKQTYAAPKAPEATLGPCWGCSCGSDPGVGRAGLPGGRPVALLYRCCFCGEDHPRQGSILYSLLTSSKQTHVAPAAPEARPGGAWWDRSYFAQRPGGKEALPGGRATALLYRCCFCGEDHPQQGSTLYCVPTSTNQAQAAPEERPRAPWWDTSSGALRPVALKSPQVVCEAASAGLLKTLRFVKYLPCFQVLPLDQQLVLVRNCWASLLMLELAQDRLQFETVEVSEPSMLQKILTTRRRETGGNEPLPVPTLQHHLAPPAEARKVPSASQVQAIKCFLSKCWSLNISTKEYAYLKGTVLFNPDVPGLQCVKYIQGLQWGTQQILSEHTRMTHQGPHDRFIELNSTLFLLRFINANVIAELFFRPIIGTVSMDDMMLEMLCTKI
Format: functional, cell-based.

A short description of experiment [23]: cytotoxicity in MIN6 insulinoma cells, dose response, cytotoxicity control, cell-based, mouse insulinoma (AID 2122).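 Further: confirmatory high-throughput counterscreen run to flag cytotoxic compounds; mouse MIN-6 beta cells carrying an insulin promoter eGFP reporter.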 Format: functional.
Experiment [24] concerns the target T3, Heat shock factor protein 1 (Mus musculus, UniProt P38532).
T3 sequence (P38532 whole entry): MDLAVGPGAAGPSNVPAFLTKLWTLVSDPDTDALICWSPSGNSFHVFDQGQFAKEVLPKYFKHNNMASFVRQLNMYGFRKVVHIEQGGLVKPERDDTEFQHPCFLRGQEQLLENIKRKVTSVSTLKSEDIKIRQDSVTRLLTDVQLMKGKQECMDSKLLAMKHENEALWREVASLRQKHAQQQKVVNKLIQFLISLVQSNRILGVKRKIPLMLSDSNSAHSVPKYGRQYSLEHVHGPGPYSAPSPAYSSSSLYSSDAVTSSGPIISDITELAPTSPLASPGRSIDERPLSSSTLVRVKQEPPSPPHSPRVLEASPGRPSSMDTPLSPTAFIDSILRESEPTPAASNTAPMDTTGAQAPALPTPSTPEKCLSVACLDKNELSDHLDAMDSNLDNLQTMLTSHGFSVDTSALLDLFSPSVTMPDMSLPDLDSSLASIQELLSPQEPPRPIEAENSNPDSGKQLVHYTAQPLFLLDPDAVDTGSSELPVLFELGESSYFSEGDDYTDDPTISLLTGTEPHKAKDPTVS
As to the kind of experiment: HSF1 potentiators in luciferase reporter cells, confirmation, cell-based, NIH3T3, luminescence, dose retest (AID 435004).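 Further: stress induced by proteasome inhibitor MG132 added 30 min after compound; luciferase reporter driven by HSF1 response element in NIH3T3 cells; actives raise luminescence as potentiators of the MG132 stress response.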 The class given is functional.

Experiment [25] in a line: insulin promoter down-regulators in MIN6 cells, imaging, high-content screening, mouse beta cells (AID 1628). The class given is functional.
A short description of experiment [26]: cytotoxicity in HEK-293T cells, dose response, cytotoxicity control for TCR NF-kB inhibitor project, luminescence, T-cell screen hits (AID 489026).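 Further: cells exposed to compound about 14 hours before the viability readout.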 Format: functional, cell-based.
A short description of experiment [27]: A Cell Based Secondary Assay To Explore Cytotoxicity of Compounds that Sensitize Mycobacterium Tuberculosis to Beta-Lactam Antibiotics. The class given is functional.

The text below walks through data of ChEMBL document CHEMBL1201862, “PubChem BioAssay data set” (2004).

Activity calls are given as the source filed them.

In general, EC50 refers to the concentration at which the effect is half-maximal. As a reminder, the IC50 is the concentration needed to halve the response being measured. The AC50 is the concentration giving half of the maximal activity seen.

Eukaryotic translation initiation factor 4E, sequence (P63073 whole entry): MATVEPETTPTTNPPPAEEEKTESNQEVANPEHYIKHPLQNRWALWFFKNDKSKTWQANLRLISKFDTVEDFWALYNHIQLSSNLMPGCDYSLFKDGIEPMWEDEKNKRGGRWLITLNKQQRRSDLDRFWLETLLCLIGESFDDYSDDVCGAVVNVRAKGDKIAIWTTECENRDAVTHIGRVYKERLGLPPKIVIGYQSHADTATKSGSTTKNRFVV
Paired box protein Pax-8, sequence (Q06710 whole entry): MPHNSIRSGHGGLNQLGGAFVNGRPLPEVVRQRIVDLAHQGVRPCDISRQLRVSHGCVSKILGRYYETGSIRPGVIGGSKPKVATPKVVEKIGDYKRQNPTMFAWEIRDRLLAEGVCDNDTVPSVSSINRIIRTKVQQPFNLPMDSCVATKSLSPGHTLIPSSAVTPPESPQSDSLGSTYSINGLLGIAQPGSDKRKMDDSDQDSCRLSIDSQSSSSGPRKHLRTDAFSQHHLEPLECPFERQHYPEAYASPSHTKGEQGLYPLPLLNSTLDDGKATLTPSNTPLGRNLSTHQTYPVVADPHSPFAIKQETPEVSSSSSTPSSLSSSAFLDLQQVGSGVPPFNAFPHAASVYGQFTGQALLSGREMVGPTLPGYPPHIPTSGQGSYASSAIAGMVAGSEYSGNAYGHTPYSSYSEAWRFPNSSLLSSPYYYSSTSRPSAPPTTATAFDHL

As to `C/C(=N\O)C(=O)Nc1ccccc1`, the EC50 in the experiment “cells [1]” and in “cells [2]” was > 350 µM (not active) each time.

Regarding `COc1ccc(-c2noc(CSc3nc(N)c(-c4ccccc4)c(=O)[nH]3)n2)cc1OC`, the IC50 in [3] is > 64 µM (inactive).

Take `CC1(C2CC2)NC(=O)NC1=O` (stereo not drawn): the IC50 in experiment [3] was > 64 µM (inactive).

In the case of `C[C@H](CO)N1C[C@H](C)[C@@H](CN(C)CC2CCCC2)Oc2ncc(C#CCc3ccccc3)cc2C1=O`, the figures for the half-maximal activity concentration (AC50) in experiment [4], in [5] and in experiment [6] were 3.18 µM (active), 0.28 µM (active) and 0.59 µM (active), respectively.

As for `CCc1ccc2ncc(S(=O)(=O)c3ccc(C)c(C)c3)c(N3CCCC3)c2c1`, the AC50 in experiment [7] was 48.2 µM (active).

On to `Cc1nc(N2CCCCC2)sc1C(=O)c1cccc([N+](=O)[O-])c1`, for which the EC50 (in the experiment on BJ [8]; with BJ [9]; in [10]; in the experiment with BJ [11]) was > 150 µM (not active) in each case.

For the compound `COc1cccc(C(=O)/C=C2\Sc3ccccc3N2C)c1`, the CC50 in experiment [12] was > 40 µM (active).

With `Clc1ccc2c(c1)C(c1ccccc1Cl)=NCc1nnc(N3CCN(CCOc4ccccc4)CC3)n1-2`, the CC50 in experiment [12] is > 40 µM (active).

For `COc1ccc(C(CC(=O)NCc2ccccc2)Sc2n[nH]c(-c3ccccc3)n2)cc1` (stereo not drawn), the EC50 in “cells [1]” and in “cells [2]” was > 350 µM (not active) each time.

Take `COc1cccc(-n2c(S)nnc2-c2cccc(S(=O)(=O)N(C)C)c2)c1`: the AC50 in experiment [13] was 39 µM (active).

As for `O=C(Nc1ccncc1)Nc1ccc(F)cc1`, the results for the EC50 (in experiment [14]; in the experiment “cells [15]”) were 0.548 µM (active) and > 29.9 µM (inactive), respectively. The IC50 in experiment [16] is 4.91 µM (active); in the experiment “cells [17]”, > 29.9 µM (inactive).

Take `C[C@H]1CCCCO[C@H](CN(C)C(=O)Nc2cccc3ccccc23)[C@@H](C)CN([C@@H](C)CO)C(=O)c2cc(NS(=O)(=O)c3ccc(Cl)cc3)ccc2O1`: the AC50 was 55.2 µM (active) in experiment [18], 4.51 µM (active) at Paired box protein Pax-8 and > 70 µM (inactive) in [19].

For `CCOc1cccc(-c2c(C(=O)N/N=C/c3ccc(C)o3)nnn2-c2nonc2N)c1`, the figures for the EC50 (in experiment [14]; in the experiment “cells [15]”) were 3.78 µM (active) and 19.4 µM (inactive), respectively. In addition, the IC50 in experiment [16] is 17.2 µM (inactive); in “cells [17]”, > 29.9 µM (inactive).

Turning to `CCCC(C)NC(=O)CSCc1ccc(OC)cc1` (stereo not drawn), the CC50 in [20] is > 40 µM (active).

Regarding `Cc1ccc(Nc2nc(Oc3ccc(=O)[nH]n3)nc(N(C)C)n2)cc1`, the IC50 in experiment [3] is > 64 µM (inactive).

Turning to `O=S(=O)(/C=C/c1ccccc1)N1CCNCC1`, the concentration for a half-maximal effect (EC50) in “cells [1]” and in the experiment “cells [2]” was > 350 µM (not active) in each case.

With `CCCCOP(=O)(OCCCC)C(Nc1ccc(C(=O)OCC)cc1)c1ccncc1` (stereo not drawn), the CC50 in experiment [12] was > 40 µM (active).

In the case of `COc1cc(C(=O)c2cc3c(cc2C)OCO3)cc(OC)c1OC`, the IC50 (in “cells [21]”; in [22]) was > 67.5 µM (inactive) in each case.

With `COc1ccc(C(CNC(=O)c2ccc(Cl)c(NC(=O)c3cccs3)c2)N2CCCC2)cc1` (stereo not drawn), the IC50 (in the experiment “cells [21]”; in experiment [22]) was > 67.5 µM (inactive) in each case.

On to `C[C@@H]1CN([C@H](C)CO)C(=O)c2cc(NC(=O)Nc3ccc(F)cc3)ccc2O[C@@H](C)CCCCO[C@@H]1CN(C)Cc1ccc2c(c1)OCO2`, for which the AC50 on Paired box protein Pax-8 was 10.9 µM (active); in [19], 58.6 µM (active).

With `CC(=O)c1cccc(-c2ccnc3c2CC(C(=O)NCc2ccccc2)O3)c1` (stereo not drawn), the IC50 (in “cells [21]”; in [22]) was > 67.4 µM (inactive) each time.

On to `Cc1nc2ccccc2n1CC(O)COCC1CC=CCC1` (stereo not drawn), for which the concentration for half-maximal inhibition (IC50) is 1.67 µM (active) in experiment [23] and 2.27 µM (active) in [25]. Also, the EC50 in experiment [24] is > 260 µM (inactive).

For `O=C(Nc1ccc(CSc2ccccc2)cc1)c1ccc(CN2CCOCC2)cc1`, the IC50 in [26] is > 80 µM (inactive).

For `COc1cc(CNCCN2CCOCC2)ccc1OCc1ccc(Cl)cc1Cl`, the AC50 in experiment [13] is 17.3 µM (active).

For the compound `O=C(c1ccc(F)cc1)N1CCC(C(=O)N(Cc2ccccc2)c2ccccc2)CC1`, the CC50 in experiment [20] is > 40 µM (active).

On to `CNCC(C)c1ccccc1` (stereo not drawn), for which the EC50 in [14] is 0.598 µM (active); in the experiment “cells [15]”, > 29.9 µM (inactive). In addition, the IC50 is 3.54 µM (active) in experiment [16] and > 29.9 µM (inactive) in “cells [17]”.

Consider `O=C(Cc1cccc2ccccc12)N/N=C/c1ccc(OC(=O)/C=C/c2ccco2)cc1`, for which the CC50 in experiment [27] is 31.2 µM (active).

`CN1CCN(C(=O)c2cc(COc3ccccc3)on2)[C@@H](c2ccccc2)C1`: the IC50 (in the experiment “cells [21]”; in experiment [22]) was > 67.6 µM (inactive) in each case.

For the compound `CCN(CC(=O)Nc1ccccc1-c1ccccc1)Cc1nc(O)c2ccccc2n1`, the EC50 in the experiment with BJ [8] is 20.1 µM (active); in the experiment on BJ [9], > 75 µM (not active); in [10], 17.9 µM (active); in the experiment on BJ [11] it was 67.2 µM (active).
